Results from ChEMBL document CHEMBL2177070, “The effect of the placement and total charge of the basic amino acid clusters on antibacterial organism selectivity and potency” (Bioorg Med Chem, 2011).
Converted amounts (≈) assume the structure as drawn. Square brackets hold non-standard residues; d marks the D form. Peptide text beside a SMILES is read from it. ξ: configuration not given here. Oic(3aξ,7aξ) = O=C(O)[C@@H]1CC2CCCCC2N1; Tiq1c(1S) = O=C(O)[C@H]1NCCc2ccccc21

What was measured:
[1] = Induction of calcein leakage in 1-palmitoyl-2-oleoyl-sn-glycero-3-phosphocholine/1-palmitoyl- 2-oleoyl-sn-glycero-3-[phospho-rac-(1-glycerol)] (sodium salt) large unilamellar vesicle assessed as leakage constant after 90 mins by fluorescence assay; assay type: physicochemical; conditions: 1.5 h
[2] = system: Burkholderia pseudomallei; assay: Antimicrobial activity against Burkholderia pseudomallei; assay type: functional
[3] = system: Francisella tularensis subsp. tularensis SCHU S4; assay: Antimicrobial activity against Francisella tularensis SCHUS4; assay type: functional
[4] = Binding affinity to 1-palmitoyl-2-oleoyl-sn-glycero-3-phosphocholine/1-palmitoyl- 2-oleoyl-sn-glycero-3-[phospho-rac-(1-glycerol)] (sodium salt) large unilamellar vesicle in 40 mM phosphate buffer at pH 6.8 at 75 uM by Far-UV CD spectra analysis; assay type: physicochemical; conditions: pH 6.8, 75 µM
[5] = Induction of calcein leakage in 1-palmitoyl-2-oleoyl-sn-glycero-3-phosphocholine/1-palmitoyl- 2-oleoyl-sn-glycero-3-[phospho-rac-(1-glycerol)] (sodium salt) large unilamellar vesicle at 4 to 20 uM after 90 mins by fluorescence assay; assay type: physicochemical; conditions: 1.5 h
[6] = Binding affinity to 1-palmitoyl-2-oleoyl-sn-glycero-3-phosphocholine/1-palmitoyl- 2-oleoyl-sn-glycero-3-[phospho-rac-(1-glycerol)] (sodium salt) small unilamellar vesicle in 40 mM phosphate buffer at pH 6.8 at 75 uM by Far-UV CD spectra analysis; assay type: physicochemical; conditions: pH 6.8, 75 µM
Bacillus subtilis = assay: Antimicrobial activity against Bacillus subtilis; assay type: functional
[7] = Binding affinity to DPC micelles by CD spectra analysis; assay type: physicochemical
Bacillus anthracis = assay: Antimicrobial activity against Bacillus anthracis AMES; assay type: functional
Staphylococcus aureus [8] = assay: Antimicrobial activity against Staphylococcus aureus ATCC 33591; assay type: functional
[9] = Binding affinity to SDS micelles by CD spectra analysis; assay type: physicochemical
Salmonella typhimurium = assay: Antimicrobial activity against Salmonella typhimurium; assay type: functional, Salmonella enterica subsp. enterica serovar Typhimurium; conditions: Salmonella enterica
Burkholderia mallei = assay: Antimicrobial activity against Burkholderia mallei; assay type: functional
[10] = Induction of calcein leakage in 1-palmitoyl-2-oleoyl-sn-glycero-3-phosphocholine large unilamellar vesicle assessed as leakage constant after 90 mins by fluorescence assay; assay type: physicochemical; conditions: 1.5 h
Brucella abortus = assay: Antimicrobial activity against Brucella abortus 2308; assay type: functional
[11] = Binding affinity to 1-palmitoyl-2-oleoyl-sn-glycero-3-phosphocholine large unilamellar vesicle at 200 uM by isothermal titration calorimetry analysis; assay type: physicochemical
Staphylococcus aureus [12] = assay: Antimicrobial activity against ME/GM/TC-resistant Staphylococcus aureus; assay type: functional
Brucella suis = assay: Antimicrobial activity against Brucella suis 23444; assay type: functional
[13] = Binding affinity to 1-palmitoyl-2-oleoyl-sn-glycero-3-phosphocholine small unilamellar vesicle in 40 mM phosphate buffer at pH 6.8 at 75 uM by Far-UV CD spectra analysis; assay type: physicochemical; conditions: pH 6.8, 75 µM
[14] = Binding affinity to 1-palmitoyl-2-oleoyl-sn-glycero-3-phosphocholine large unilamellar vesicle in 40 mM phosphate buffer at pH 6.8 at 75 uM by Far-UV CD spectra analysis; assay type: physicochemical; conditions: pH 6.8, 75 µM
Brucella melitensis = assay: Antimicrobial activity against Brucella melitensis 16M; assay type: functional
[15] = Binding affinity to 1-palmitoyl-2-oleoyl-sn-glycero-3-phosphocholine/1-palmitoyl- 2-oleoyl-sn-glycero-3-[phospho-rac-(1-glycerol)] (sodium salt) large unilamellar vesicle at 200 uM by isothermal titration calorimetry analysis; assay type: physicochemical
Acinetobacter baumannii [16] = assay: Antimicrobial activity against Acinetobacter baumannii WRAIR; assay type: functional
Acinetobacter baumannii [17] = assay: Antimicrobial activity against Acinetobacter baumannii ATCC 19606; assay type: functional
Mycobacterium = assay: Antimicrobial activity against Mycobacterium ranae; assay type: functional
Yersinia pestis = assay: Antimicrobial activity against Yersinia pestis CO92; assay type: functional
[18] = Binding affinity to 1-palmitoyl-2-oleoyl-sn-glycero-3-phosphocholine/1-palmitoyl- 2-oleoyl-sn-glycero-3-[phospho-rac-(1-glycerol)] (sodium salt) small unilamellar vesicle in 40 mM phosphate buffer at pH 6.8 at 100 uM by Far-UV CD spectra analysis; assay type: physicochemical; conditions: pH 6.8, 100 µM
[19] = Induction of calcein leakage in 1-palmitoyl-2-oleoyl-sn-glycero-3-phosphocholine large unilamellar vesicle at 4 to 20 uM after 90 mins by fluorescence assay; assay type: physicochemical; conditions: 1.5 h
[20] = Binding affinity to 1-palmitoyl-2-oleoyl-sn-glycero-3-phosphocholine large unilamellar vesicle at 100 uM by isothermal titration calorimetry analysis; assay type: physicochemical
[21] = Binding affinity to 1-palmitoyl-2-oleoyl-sn-glycero-3-phosphocholine/1-palmitoyl- 2-oleoyl-sn-glycero-3-[phospho-rac-(1-glycerol)] (sodium salt) large unilamellar vesicle in 40 mM phosphate buffer at pH 6.8 at 100 uM by Far-UV CD spectra analysis; assay type: physicochemical; conditions: pH 6.8, 100 µM
[22] = Binding affinity to 1-palmitoyl-2-oleoyl-sn-glycero-3-phosphocholine large unilamellar vesicle in 40 mM phosphate buffer at pH 6.8 at 100 uM by Far-UV CD spectra analysis; assay type: physicochemical; conditions: pH 6.8, 100 µM
[23] = Binding affinity to 1-palmitoyl-2-oleoyl-sn-glycero-3-phosphocholine small unilamellar vesicle in 40 mM phosphate buffer at pH 6.8 at 100 uM by Far-UV CD spectra analysis; assay type: physicochemical; conditions: pH 6.8, 100 µM

Structure (SMILES)	K [1]	MIC [2] [µM]	MIC [3] [µM]	Activity [5]	Activity [7]	MIC (Bacillus anthracis) [µM]	MIC (Staphylococcus aureus [8]) [µM]	Activity [9]	MIC (Salmonella typhimurium) [µM]	MIC (Burkholderia mallei) [µM]	K [10]	MIC (Brucella abortus) [µM]	MIC (Staphylococcus aureus [12]) [µM]	MIC (Brucella suis) [µM]	MIC (Brucella melitensis) [µM]	Activity [15]	MIC (Acinetobacter baumannii [16]) [µM]	MIC (Acinetobacter baumannii [17]) [µM]	MIC (Mycobacterium) [µM]	MIC (Yersinia pestis) [µM]	other results
CC(=O)NCC(=O)N[C@@H](Cc1ccccc1)C(=O)N1CCc2ccccc2[C@H]1C(=O)N1C2CCCCC2C[C@H]1C(=O)NCC(=O)N[C@@H](CCCCN)C(=O)N1CCc2ccccc2[C@H]1C(=O)N1C2CCCCC2C[C@H]1C(=O)NCC(=O)N[C@@H](Cc1ccccc1)C(=O)N1CCc2ccccc2[C@H]1C(=O)N1C2CCCCC2C[C@H]1C(=O)NCC(=O)N[C@@H](CCCCN)C(=O)N1CCc2ccccc2[C@H]1C(=O)N[C@@H](CCCCN)C(=O)N[C@@H](CCCCN)C(=O)N[C@@H](CCCCN)C(=O)N[C@@H](CCCCN)C(N)=O (stereo partly drawn) (Ac-GF[Tiq1c(1S)][Oic(3aξ,7aξ)]GK[Tiq1c(1S)][Oic(3aξ,7aξ)]GF[Tiq1c(1S)][Oic(3aξ,7aξ)]GK[Tiq1c(1S)]KKKK-NH2)	0.089	205 (≈ 500 µg/mL)	100 (≈ 244 µg/mL)	Not Active	Active	12.8 (≈ 31.2 µg/mL)	205 (≈ 500 µg/mL)	Active	10 (≈ 24.4 µg/mL)	205 (≈ 500 µg/mL)	0.097	205 (≈ 500 µg/mL)	3 (≈ 7.32 µg/mL)	205 (≈ 500 µg/mL)	205 (≈ 500 µg/mL)	Active	3.2 (≈ 7.81 µg/mL)	3.2 (≈ 7.81 µg/mL)	10 (≈ 24.4 µg/mL)	205 (≈ 500 µg/mL)	Activity [4]: Active; Activity [6]: Active; MIC (Bacillus subtilis): 1 µM (≈ 2.44 µg/mL); Activity [11]: Active; Activity [13]: Active; Activity [14]: Active
CC(=O)NCC(=O)N[C@@H](Cc1ccccc1)C(=O)N1CCc2ccccc2[C@H]1C(=O)N1C2CCCCC2C[C@H]1C(=O)NCC(=O)N[C@@H](CCCCN)C(=O)N1CCc2ccccc2[C@H]1C(=O)N1C2CCCCC2C[C@H]1C(=O)NCC(=O)N[C@@H](Cc1ccccc1)C(=O)N1CCc2ccccc2[C@H]1C(=O)N1C2CCCCC2C[C@H]1C(=O)NCC(=O)N[C@@H](CCCCN)C(=O)N1CCc2ccccc2[C@H]1C(=O)N[C@@H](CCCCN)C(=O)N[C@@H](CCCCN)C(=O)N[C@@H](CCCCN)C(N)=O (stereo partly drawn) (Ac-GF[Tiq1c(1S)][Oic(3aξ,7aξ)]GK[Tiq1c(1S)][Oic(3aξ,7aξ)]GF[Tiq1c(1S)][Oic(3aξ,7aξ)]GK[Tiq1c(1S)]KKK-NH2)	0.075	0.02 (≈ 0.0463 µg/mL)	0.02 (≈ 0.0463 µg/mL)	Active	Active	27 (≈ 62.4 µg/mL)	54 (≈ 125 µg/mL)	Active	–	0.02 (≈ 0.0463 µg/mL)	0.014	27 (≈ 62.4 µg/mL)	–	> 216	54 (≈ 125 µg/mL)	Active	3.4 (≈ 7.86 µg/mL)	6.7 (≈ 15.5 µg/mL)	–	27 (≈ 62.4 µg/mL)	Activity [18]: Active; Activity [19]: Active; Activity [20]: Active; Activity [21]: Active; Activity [22]: Active; Activity [23]: Active
CC(=O)N[C@@H](CCCCN)C(=O)N[C@@H](CCCCN)C(=O)N[C@@H](CCCCN)C(=O)N[C@@H](CCCCN)C(=O)NCC(=O)N[C@@H](Cc1ccccc1)C(=O)N1CCc2ccccc2[C@H]1C(=O)N1C2CCCCC2C[C@H]1C(=O)NCC(=O)N[C@@H](CCCCN)C(=O)N1CCc2ccccc2[C@H]1C(=O)N1C2CCCCC2C[C@H]1C(=O)NCC(=O)N[C@@H](Cc1ccccc1)C(=O)N1CCc2ccccc2[C@H]1C(=O)N1C2CCCCC2C[C@H]1C(=O)NCC(=O)N[C@@H](CCCCN)C(=O)N1CCc2ccccc2[C@H]1C(N)=O (stereo partly drawn) (Ac-KKKKGF[Tiq1c(1S)][Oic(3aξ,7aξ)]GK[Tiq1c(1S)][Oic(3aξ,7aξ)]GF[Tiq1c(1S)][Oic(3aξ,7aξ)]GK[Tiq1c(1S)]-NH2)	0.0085	204 (≈ 498 µg/mL)	51 (≈ 124 µg/mL)	Active	Active	0.4 (≈ 0.976 µg/mL)	102 (≈ 249 µg/mL)	Active	100 (≈ 244 µg/mL)	204 (≈ 498 µg/mL)	0.57	51 (≈ 124 µg/mL)	30 (≈ 73.2 µg/mL)	25.6 (≈ 62.5 µg/mL)	51 (≈ 124 µg/mL)	Active	12.8 (≈ 31.2 µg/mL)	12.8 (≈ 31.2 µg/mL)	3 (≈ 7.32 µg/mL)	13.1 (≈ 32 µg/mL)	Activity [18]: Active; Activity [19]: Active; Activity [20]: Active; Activity [21]: Active; Activity [22]: Active; Activity [23]: Active
CC(=O)NCC(=O)N[C@@H](Cc1ccccc1)C(=O)N1CCc2ccccc2[C@H]1C(=O)N1C2CCCCC2C[C@H]1C(=O)NCC(=O)N[C@@H](CCCCN)C(=O)N1CCc2ccccc2[C@H]1C(=O)N1C2CCCCC2C[C@H]1C(=O)NCC(=O)N[C@@H](Cc1ccccc1)C(=O)N1CCc2ccccc2[C@H]1C(=O)N1C2CCCCC2C[C@H]1C(=O)NCC(=O)N[C@@H](CCCCN)C(=O)N1CCc2ccccc2[C@H]1C(=O)N[C@@H](CCCCN)C(=O)N[C@@H](CCCCN)C(=O)N[C@@H](CCCCN)C(=O)N[C@@H](CCCCN)C(=O)N[C@@H](CCCCN)C(N)=O (stereo partly drawn) (Ac-GF[Tiq1c(1S)][Oic(3aξ,7aξ)]GK[Tiq1c(1S)][Oic(3aξ,7aξ)]GF[Tiq1c(1S)][Oic(3aξ,7aξ)]GK[Tiq1c(1S)]KKKKK-NH2)	0.073	–	–	Not Active	–	–	–	–	10 (≈ 25.7 µg/mL)	–	0.0011	–	3 (≈ 7.71 µg/mL)	–	–	Active	–	–	3 (≈ 7.71 µg/mL)	–	Activity [18]: Active; MIC (Bacillus subtilis): 1 µM (≈ 2.57 µg/mL); Activity [20]: Active; Activity [21]: Active; Activity [22]: Active; Activity [23]: Active
